Tests used:
[1] = target: T1, Tyrosine-protein kinase JAK3 (Homo sapiens, UniProt P52333); test: In Vitro Kinase Assay: In vitro kinase assays described below can be used to determine the activity of a test compound for inhibiting the activity of JAK3 kinase. The test compounds were dissolved in dimethyl sulfoxide and diluted with water to a serial concentration gradient as required by the experiment. JAK3 substrates (Cell Signaling Technology, Catalog Number: 1305s) and ATP (2 mM) solution …
T1 sequence (P52333 whole entry): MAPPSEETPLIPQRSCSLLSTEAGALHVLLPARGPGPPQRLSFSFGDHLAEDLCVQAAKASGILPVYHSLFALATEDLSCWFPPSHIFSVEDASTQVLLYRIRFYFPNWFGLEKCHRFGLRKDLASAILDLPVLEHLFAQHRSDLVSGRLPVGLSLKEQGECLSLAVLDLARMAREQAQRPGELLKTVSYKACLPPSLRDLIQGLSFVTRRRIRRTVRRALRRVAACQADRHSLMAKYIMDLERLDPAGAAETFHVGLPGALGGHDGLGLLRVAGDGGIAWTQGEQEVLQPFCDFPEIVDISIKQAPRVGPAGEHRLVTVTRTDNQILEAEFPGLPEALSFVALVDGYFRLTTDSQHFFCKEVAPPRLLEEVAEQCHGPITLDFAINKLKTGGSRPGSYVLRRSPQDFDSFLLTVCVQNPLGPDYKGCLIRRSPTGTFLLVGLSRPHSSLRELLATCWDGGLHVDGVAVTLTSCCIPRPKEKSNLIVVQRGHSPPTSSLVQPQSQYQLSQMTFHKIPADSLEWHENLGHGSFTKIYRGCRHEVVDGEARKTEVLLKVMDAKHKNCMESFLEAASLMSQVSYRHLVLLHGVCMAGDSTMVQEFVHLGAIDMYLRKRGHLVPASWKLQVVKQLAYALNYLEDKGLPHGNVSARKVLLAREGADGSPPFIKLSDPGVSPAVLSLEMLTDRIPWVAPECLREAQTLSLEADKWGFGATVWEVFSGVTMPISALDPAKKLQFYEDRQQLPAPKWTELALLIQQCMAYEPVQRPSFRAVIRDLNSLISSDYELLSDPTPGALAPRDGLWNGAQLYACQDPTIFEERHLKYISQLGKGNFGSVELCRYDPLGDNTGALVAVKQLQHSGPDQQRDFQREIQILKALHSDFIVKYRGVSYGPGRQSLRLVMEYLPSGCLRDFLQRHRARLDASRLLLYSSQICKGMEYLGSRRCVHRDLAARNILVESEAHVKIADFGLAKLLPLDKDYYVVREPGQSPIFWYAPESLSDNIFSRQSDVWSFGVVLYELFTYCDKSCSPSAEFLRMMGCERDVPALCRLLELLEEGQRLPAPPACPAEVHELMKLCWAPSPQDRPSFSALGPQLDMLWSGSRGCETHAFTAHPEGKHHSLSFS

[2] = target: T2, Tyrosine-protein kinase JAK1 (Homo sapiens, UniProt P23458); test: JAK1 Kinase Assay: TBDIn vitro kinase assays described below can be used to determine the activity of a test compound for inhibiting the activity of JAK1 kinase. The test compounds were dissolved in dimethyl sulfoxide and diluted with water to a serial concentration gradient as required in the experiment. JAK1 substrates (Cell Signaling Technology, Catalog Number: 1305s) and ATP (2 mM) solution …
[3] = target: T2, Tyrosine-protein kinase JAK1; test: IC50 values of test compounds was calculated from the data of the test compounds in inhibiting the activity of JAK1 kinase at different concentrations.

T2 sequence (P23458 whole entry): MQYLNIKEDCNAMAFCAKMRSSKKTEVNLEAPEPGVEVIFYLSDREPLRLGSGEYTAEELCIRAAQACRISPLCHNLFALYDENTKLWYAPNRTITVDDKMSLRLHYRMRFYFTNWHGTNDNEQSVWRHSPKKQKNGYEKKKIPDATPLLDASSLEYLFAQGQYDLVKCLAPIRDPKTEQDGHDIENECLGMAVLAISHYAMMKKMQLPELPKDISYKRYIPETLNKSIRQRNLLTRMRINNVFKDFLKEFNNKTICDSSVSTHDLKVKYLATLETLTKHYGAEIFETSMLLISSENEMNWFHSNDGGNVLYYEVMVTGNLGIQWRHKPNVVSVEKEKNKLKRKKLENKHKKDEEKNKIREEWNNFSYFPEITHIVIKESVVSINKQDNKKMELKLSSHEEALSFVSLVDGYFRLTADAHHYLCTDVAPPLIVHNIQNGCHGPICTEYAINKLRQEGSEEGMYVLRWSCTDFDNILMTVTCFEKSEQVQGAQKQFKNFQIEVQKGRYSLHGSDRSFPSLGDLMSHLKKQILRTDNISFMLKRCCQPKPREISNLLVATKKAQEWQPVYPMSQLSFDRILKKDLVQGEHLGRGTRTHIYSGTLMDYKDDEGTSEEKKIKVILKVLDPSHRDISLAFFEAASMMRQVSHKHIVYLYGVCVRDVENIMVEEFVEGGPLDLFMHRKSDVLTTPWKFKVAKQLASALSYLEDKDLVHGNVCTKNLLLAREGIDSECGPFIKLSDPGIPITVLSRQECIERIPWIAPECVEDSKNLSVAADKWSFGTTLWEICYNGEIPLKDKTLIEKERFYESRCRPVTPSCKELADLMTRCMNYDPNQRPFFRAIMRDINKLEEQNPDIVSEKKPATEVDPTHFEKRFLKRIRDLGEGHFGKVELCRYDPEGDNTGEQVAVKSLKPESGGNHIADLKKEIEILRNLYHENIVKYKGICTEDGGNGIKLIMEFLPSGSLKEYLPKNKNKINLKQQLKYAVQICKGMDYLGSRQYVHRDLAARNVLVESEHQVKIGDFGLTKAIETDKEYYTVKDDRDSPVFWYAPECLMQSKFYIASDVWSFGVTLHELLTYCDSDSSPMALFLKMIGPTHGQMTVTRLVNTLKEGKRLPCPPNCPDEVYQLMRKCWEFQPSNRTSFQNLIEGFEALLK

Row | IC50 [3] [nM] | SMILES | IC50 [1] [nM] | IC50 [2] [nM]
1 | – | CN(c1ncnc2[nH]ccc12)[C@@H]1C[C@@H]2CCN(C(=O)Nc3nncs3)C[C@@H]2C1 | 148 | 40
2 | 45 | CN(c1ncnc2[nH]ccc12)[C@H]1C[C@@H]2CN(C(=O)[C@H](O)C(F)(F)F)C[C@@H]2C1 | – | –
